{
  "source": "ChEMBL document CHEMBL4024706",
  "about": "(Eur J Med Chem, 2017)",
  "key": {"[1]": {"biological_target": "Cyclin-dependent kinase 2 (Homo sapiens) (UniProt P24941)", "experiment": "Inhibition of wild-type human full length CDK2 (M1 to L298 residues) expressed in bacterial expression system assessed as residual activity at 1 uM by Kinomescan method relative to control"}, "[2]": {"system": "Phosphatidylinositol 4,5-bisphosphate 3-kinase catalytic subunit alpha isoform (Homo sapiens), P42336 [I800L]", "sequence (P42336 whole entry I800L, the tested form may be a part, canonical isoform)": "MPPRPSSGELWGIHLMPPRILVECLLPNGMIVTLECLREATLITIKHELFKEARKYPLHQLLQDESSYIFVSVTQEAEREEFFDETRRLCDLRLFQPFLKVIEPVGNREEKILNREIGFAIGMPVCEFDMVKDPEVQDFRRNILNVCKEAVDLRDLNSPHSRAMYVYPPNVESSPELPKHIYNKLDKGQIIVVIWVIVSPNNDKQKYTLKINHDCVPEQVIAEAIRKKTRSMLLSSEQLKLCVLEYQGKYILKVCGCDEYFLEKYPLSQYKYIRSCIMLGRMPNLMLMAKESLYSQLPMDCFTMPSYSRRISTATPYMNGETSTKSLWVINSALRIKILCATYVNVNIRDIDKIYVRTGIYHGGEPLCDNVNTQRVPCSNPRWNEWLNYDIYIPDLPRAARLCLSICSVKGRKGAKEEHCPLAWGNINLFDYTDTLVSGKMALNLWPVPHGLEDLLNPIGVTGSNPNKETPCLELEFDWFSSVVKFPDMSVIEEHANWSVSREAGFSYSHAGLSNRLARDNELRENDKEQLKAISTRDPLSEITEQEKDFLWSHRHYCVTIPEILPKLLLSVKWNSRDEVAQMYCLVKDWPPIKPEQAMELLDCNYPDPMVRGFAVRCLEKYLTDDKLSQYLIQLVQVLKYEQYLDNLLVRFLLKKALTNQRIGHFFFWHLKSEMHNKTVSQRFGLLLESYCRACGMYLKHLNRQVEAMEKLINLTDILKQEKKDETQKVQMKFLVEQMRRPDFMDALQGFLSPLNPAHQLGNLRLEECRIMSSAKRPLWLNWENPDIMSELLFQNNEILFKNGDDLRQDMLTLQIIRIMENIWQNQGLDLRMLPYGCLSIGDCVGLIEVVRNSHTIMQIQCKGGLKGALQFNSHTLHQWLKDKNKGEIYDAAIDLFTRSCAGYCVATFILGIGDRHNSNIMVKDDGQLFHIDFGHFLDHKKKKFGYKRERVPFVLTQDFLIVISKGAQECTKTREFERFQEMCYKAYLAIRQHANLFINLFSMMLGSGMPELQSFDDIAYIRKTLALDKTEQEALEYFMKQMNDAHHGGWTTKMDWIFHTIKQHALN", "experiment": "Inhibition of human partial length PIK3CA I800L mutant (R108 to N1068 residues) expressed in mammalian expression system assessed as residual activity at 1 uM by Kinomescan method relative to control"}, "[3]": {"biological_target": "Mitogen-activated protein kinase kinase kinase 19 (Homo sapiens) (UniProt Q56UN5)", "experiment": "Inhibition of wild-type human partial length YSK4 (T1019 to H1328 residues) expressed in mammalian expression system assessed as residual activity at 1 uM by Kinomescan method relative to control"}, "[4]": {"biological_target": "Cyclin-dependent kinase 7 (Homo sapiens) (UniProt P50613)", "experiment": "Inhibition of wild-type human full length CDK7 (M1 to L344 residues) expressed in mammalian expression system assessed as residual activity at 1 uM by Kinomescan method relative to control"}, "[5]": {"system": "Phosphatidylinositol 4,5-bisphosphate 3-kinase catalytic subunit alpha isoform (Homo sapiens), P42336 [E545A]", "sequence (P42336 whole entry E545A, the tested form may be a part, canonical isoform)": "as the sequence (P42336 whole entry I800L, the tested form may be a part, canonical isoform) above, with E545A, L800I counted along it", "experiment": "Inhibition of human partial length PIK3CA E545A mutant (R108 to N1068 residues) expressed in mammalian expression system assessed as residual activity at 1 uM by Kinomescan method relative to control"}, "[6]": {"biological_target": "Mitogen-activated protein kinase kinase kinase kinase 4 (Homo sapiens) (UniProt O95819)", "experiment": "Inhibition of wild-type human partial length MAP4K4 (M1 to R310 residues) expressed in bacterial expression system assessed as residual activity at 1 uM by Kinomescan method relative to control"}, "[7]": {"biological_target": "Serine/threonine-protein kinase Nek11 (Homo sapiens) (UniProt Q8NG66)", "sequence (Q8NG66 whole entry, the tested form may be a part)": "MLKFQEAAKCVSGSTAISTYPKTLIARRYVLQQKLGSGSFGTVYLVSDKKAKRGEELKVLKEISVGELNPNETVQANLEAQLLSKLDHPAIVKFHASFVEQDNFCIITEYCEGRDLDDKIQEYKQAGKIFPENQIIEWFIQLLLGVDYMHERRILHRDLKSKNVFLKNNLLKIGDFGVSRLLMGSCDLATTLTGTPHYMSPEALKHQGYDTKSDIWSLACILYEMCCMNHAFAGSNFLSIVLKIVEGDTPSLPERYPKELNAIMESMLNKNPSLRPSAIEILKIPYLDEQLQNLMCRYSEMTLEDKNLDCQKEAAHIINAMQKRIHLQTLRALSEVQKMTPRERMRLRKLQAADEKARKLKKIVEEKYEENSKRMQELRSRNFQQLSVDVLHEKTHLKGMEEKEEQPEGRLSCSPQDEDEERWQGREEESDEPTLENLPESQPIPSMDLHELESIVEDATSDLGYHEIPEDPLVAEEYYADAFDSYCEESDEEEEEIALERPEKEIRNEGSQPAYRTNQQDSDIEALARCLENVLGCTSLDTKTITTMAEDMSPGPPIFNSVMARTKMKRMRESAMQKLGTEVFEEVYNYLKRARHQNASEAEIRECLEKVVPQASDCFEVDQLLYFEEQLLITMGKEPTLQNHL", "experiment": "Inhibition of wild-type human partial length NEK11 (M1 to E313 residues) expressed in mammalian expression system assessed as residual activity at 1 uM by Kinomescan method relative to control"}, "[8]": {"biological_target": "Serine/threonine-protein kinase DCLK2 (Homo sapiens) (UniProt Q8N568)", "experiment": "Inhibition of wild-type human partial length DCAMKL2 (K273 to V664 residues) expressed in bacterial expression system assessed as residual activity at 1 uM by Kinomescan method relative to control"}, "[9]": {"system": "Proto-oncogene tyrosine-protein kinase receptor Ret (Homo sapiens), P07949 [V804M]", "experiment": "Inhibition of human partial length RET V804M mutant (E713 to D1014 residues) expressed in bacterial expression system assessed as residual activity at 1 uM by Kinomescan method relative to control"}, "[10]": {"biological_target": "Ephrin type-B receptor 4 (Homo sapiens) (UniProt P54760)", "experiment": "Inhibition of wild-type human partial length EPHB4 (H585 to G892 residues) expressed in bacterial expression system assessed as residual activity at 1 uM by Kinomescan method relative to control"}, "[11]": {"biological_target": "Serine/threonine-protein kinase ULK3 (Homo sapiens) (UniProt Q6PHR2)", "sequence (Q6PHR2 whole entry, the tested form may be a part)": "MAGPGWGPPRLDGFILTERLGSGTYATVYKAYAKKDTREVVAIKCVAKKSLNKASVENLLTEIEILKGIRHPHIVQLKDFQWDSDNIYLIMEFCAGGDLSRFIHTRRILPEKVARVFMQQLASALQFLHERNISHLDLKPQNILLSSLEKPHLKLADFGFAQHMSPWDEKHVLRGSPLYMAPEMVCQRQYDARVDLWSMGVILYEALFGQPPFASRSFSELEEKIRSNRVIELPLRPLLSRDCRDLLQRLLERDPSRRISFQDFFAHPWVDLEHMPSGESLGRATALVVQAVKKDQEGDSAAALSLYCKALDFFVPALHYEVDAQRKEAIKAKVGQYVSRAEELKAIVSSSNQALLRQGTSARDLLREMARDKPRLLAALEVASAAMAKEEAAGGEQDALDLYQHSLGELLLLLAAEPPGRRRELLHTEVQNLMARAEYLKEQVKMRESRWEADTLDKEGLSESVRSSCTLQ", "experiment": "Inhibition of wild-type human partial length ULK3 (M1 to Q290 residues) expressed in mammalian expression system assessed as residual activity at 1 uM by Kinomescan method relative to control"}, "[12]": {"experiment": "Cmax in Sprague-Dawley rat at 1 mg/kg, iv by LC-MS/MS method", "assay_type": "ADME, organism-based", "design": "dose 1 mg/kg, route intravenous", "details": "in vivo"}, "[13]": {"biological_target": "Serine/threonine-protein kinase D3 (Homo sapiens) (UniProt O94806)", "experiment": "Inhibition of wild-type human partial length PRKD3 (S543 to E863 residues) expressed in bacterial expression system assessed as residual activity at 1 uM by Kinomescan method relative to control"}, "[14]": {"biological_target": "Mitogen-activated protein kinase kinase kinase 2 (Homo sapiens) (UniProt Q9Y2U5)", "experiment": "Inhibition of wild-type human partial length MAP3K2 (S315 to H619 residues) expressed in mammalian expression system assessed as residual activity at 1 uM by Kinomescan method relative to control"}, "[15]": {"biological_target": "Ephrin type-B receptor 1 (Homo sapiens) (UniProt P54762)", "sequence (P54762 whole entry, the tested form may be a part)": "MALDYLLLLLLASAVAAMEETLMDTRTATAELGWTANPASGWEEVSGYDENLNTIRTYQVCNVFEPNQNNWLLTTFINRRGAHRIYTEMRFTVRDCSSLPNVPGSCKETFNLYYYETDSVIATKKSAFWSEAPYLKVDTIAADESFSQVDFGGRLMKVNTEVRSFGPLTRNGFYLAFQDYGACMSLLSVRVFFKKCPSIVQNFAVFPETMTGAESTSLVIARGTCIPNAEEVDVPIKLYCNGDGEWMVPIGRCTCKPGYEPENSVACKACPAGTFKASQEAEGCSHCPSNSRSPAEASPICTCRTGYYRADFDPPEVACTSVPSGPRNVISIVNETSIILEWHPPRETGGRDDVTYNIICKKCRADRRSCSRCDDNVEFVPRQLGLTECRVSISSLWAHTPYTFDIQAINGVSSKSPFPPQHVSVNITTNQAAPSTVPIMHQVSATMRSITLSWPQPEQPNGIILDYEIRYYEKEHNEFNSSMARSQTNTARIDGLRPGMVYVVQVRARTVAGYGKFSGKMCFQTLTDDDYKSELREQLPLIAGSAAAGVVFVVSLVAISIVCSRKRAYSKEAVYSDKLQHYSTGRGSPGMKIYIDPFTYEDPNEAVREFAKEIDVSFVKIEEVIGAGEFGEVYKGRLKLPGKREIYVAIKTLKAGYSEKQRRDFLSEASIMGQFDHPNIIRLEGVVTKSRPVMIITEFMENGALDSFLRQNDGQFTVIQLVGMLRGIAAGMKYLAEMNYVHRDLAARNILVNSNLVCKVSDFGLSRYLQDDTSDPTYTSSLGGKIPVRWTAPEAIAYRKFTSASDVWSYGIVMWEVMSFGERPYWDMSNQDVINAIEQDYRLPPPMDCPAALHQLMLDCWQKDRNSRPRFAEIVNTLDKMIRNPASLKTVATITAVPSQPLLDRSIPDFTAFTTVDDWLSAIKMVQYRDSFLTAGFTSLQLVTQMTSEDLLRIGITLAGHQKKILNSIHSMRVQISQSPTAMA", "experiment": "Inhibition of wild-type human partial length EPHB1 (P589 to T911 residues) expressed in bacterial expression system assessed as residual activity at 1 uM by Kinomescan method relative to control"}, "[16]": {"biological_target": "Cyclin-dependent kinase 11B (Homo sapiens) (UniProt P21127)", "experiment": "Inhibition of wild-type human partial length CDC2L1 (P353 to G692 residues) expressed in bacterial expression system assessed as residual activity at 1 uM by Kinomescan method relative to control"}, "[17]": {"biological_target": "cGMP-dependent protein kinase 2 (Homo sapiens) (UniProt Q13237)", "sequence (Q13237 whole entry, the tested form may be a part)": "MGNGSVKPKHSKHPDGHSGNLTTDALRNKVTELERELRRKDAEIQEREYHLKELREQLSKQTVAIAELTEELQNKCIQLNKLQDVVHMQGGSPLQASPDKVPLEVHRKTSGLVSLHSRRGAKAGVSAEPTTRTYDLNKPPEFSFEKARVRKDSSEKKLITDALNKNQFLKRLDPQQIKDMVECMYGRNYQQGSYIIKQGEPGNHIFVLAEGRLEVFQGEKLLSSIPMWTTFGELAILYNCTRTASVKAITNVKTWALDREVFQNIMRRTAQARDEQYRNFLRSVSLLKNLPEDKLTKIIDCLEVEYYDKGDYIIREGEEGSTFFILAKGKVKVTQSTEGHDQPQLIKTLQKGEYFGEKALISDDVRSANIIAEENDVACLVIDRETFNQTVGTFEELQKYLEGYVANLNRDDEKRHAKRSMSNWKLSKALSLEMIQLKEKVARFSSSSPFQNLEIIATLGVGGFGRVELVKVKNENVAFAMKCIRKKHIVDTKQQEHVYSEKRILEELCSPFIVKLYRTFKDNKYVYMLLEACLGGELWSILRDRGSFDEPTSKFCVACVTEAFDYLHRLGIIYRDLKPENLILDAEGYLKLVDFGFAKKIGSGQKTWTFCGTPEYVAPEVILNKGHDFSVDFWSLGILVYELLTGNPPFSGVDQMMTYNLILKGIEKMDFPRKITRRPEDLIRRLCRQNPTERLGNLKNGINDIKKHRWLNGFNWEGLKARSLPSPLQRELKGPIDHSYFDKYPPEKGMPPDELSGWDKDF", "experiment": "Inhibition of wild-type human partial length PRKG2 (S422 to F762 residues) expressed in mammalian expression system assessed as residual activity at 1 uM by Kinomescan method relative to control"}, "[18]": {"biological_target": "Serine/threonine-protein kinase SBK1 (Homo sapiens) (UniProt Q52WX2)", "experiment": "Inhibition of wild-type human partial length SBK1 (P23 to P348 residues) expressed in mammalian expression system assessed as residual activity at 1 uM by Kinomescan method relative to control"}, "[19]": {"biological_target": "Serine/threonine-protein kinase Sgk3 (Homo sapiens) (UniProt Q96BR1)", "experiment": "Inhibition of wild-type human partial length SGK3 (M119 to L496 residues) expressed in mammalian expression system assessed as residual activity at 1 uM by Kinomescan method relative to control"}, "[20]": {"experiment": "Tmax in Sprague-Dawley rat at 1 mg/kg, iv by LC-MS/MS method", "assay_type": "ADME, organism-based", "details": "in vivo"}, "[21]": {"biological_target": "Dual specificity mitogen-activated protein kinase kinase 1 (Homo sapiens) (UniProt Q02750)", "experiment": "Inhibition of wild-type human full length MEK1 (M1 to V393 residues) expressed in mammalian expression system assessed as residual activity at 1 uM by Kinomescan method relative to control"}, "[22]": {"biological_target": "Ribosomal protein S6 kinase alpha-5 (Homo sapiens) (UniProt O75582)", "experiment": "Inhibition of wild-type human partial length N-terminal RPS6KA5 kinase domain 1 expressed in bacterial expression system assessed as residual activity at 1 uM by Kinomescan method relative to control"}, "[23]": {"biological_target": "Dual specificity mitogen-activated protein kinase kinase 4 (Homo sapiens) (UniProt P45985)", "sequence (P45985 whole entry, the tested form may be a part)": "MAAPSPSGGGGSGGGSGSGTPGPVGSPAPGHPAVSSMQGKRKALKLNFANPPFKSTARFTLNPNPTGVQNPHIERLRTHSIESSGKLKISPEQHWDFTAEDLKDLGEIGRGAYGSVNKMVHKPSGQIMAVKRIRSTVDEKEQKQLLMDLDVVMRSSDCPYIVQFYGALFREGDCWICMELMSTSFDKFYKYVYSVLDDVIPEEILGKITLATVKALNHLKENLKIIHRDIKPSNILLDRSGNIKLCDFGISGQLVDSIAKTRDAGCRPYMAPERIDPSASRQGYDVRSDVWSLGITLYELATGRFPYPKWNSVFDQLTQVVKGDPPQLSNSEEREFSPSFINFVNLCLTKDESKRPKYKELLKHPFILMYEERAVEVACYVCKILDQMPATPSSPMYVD", "experiment": "Inhibition of wild-type human partial length MEK4 (S84 to D399 residues) expressed in mammalian expression system assessed as residual activity at 1 uM by Kinomescan method relative to control"}, "[24]": {"biological_target": "Mitogen-activated protein kinase kinase kinase 20 (Homo sapiens) (UniProt Q9NYL2)", "experiment": "Inhibition of wild-type human partial length ZAK (M1 to L331 residues) expressed in bacterial expression system assessed as residual activity at 1 uM by Kinomescan method relative to control"}, "[25]": {"biological_target": "Calcium/calmodulin-dependent protein kinase type II subunit beta (Homo sapiens) (UniProt Q13554)", "sequence (Q13554 whole entry, the tested form may be a part)": "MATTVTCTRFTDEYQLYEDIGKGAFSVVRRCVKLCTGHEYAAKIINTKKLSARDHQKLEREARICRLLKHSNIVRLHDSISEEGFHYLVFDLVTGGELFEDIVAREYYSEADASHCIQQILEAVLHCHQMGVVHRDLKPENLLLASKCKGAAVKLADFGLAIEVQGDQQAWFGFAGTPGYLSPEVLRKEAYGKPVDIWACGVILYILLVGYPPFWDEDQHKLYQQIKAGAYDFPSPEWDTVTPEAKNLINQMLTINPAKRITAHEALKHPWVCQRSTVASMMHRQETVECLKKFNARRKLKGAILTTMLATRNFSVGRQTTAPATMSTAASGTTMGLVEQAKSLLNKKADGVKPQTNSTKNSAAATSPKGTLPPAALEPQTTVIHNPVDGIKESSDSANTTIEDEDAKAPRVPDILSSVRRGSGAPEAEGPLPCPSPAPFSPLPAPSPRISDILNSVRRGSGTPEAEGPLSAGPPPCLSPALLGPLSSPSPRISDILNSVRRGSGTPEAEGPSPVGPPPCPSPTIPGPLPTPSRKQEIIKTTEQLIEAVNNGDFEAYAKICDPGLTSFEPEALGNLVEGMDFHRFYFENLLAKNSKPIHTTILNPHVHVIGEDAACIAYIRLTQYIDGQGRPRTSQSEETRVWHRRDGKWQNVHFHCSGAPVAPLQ", "experiment": "Inhibition of wild-type human partial length CAMK2B (M1 to Q380 residues) expressed in bacterial expression system assessed as residual activity at 1 uM by Kinomescan method relative to control"}, "[26]": {"biological_target": "Serine/threonine-protein kinase Nek6 (Homo sapiens) (UniProt Q9HC98)", "experiment": "Inhibition of wild-type human full length NEK6 (M8 to T313 residues) expressed in bacterial expression system assessed as residual activity at 1 uM by Kinomescan method relative to control"}},
  "data": [
    {"smiles": "C=CC(=O)Nc1cc(Nc2cc(-c3cccc(NC(=O)c4ccc(C(C)(C)C)cc4)c3C)cn(C)c2=O)ccc1C(=O)N1CCOCC1", "values": [
      {"measurement": "Activity", "setting": "[1]", "result": 99, "unit": "%"},
      {"measurement": "Activity", "setting": "[2]", "result": 100, "unit": "%"},
      {"measurement": "Activity", "setting": "[3]", "result": 100, "unit": "%"},
      {"measurement": "Activity", "setting": "[4]", "result": 89, "unit": "%"},
      {"measurement": "Activity", "setting": "[5]", "result": 96, "unit": "%"},
      {"measurement": "Activity", "setting": "[6]", "result": 86, "unit": "%"},
      {"measurement": "Activity", "setting": "[7]", "result": 97, "unit": "%"},
      {"measurement": "Activity", "setting": "[8]", "result": 89, "unit": "%"},
      {"measurement": "Activity", "setting": "[9]", "result": 96, "unit": "%"},
      {"measurement": "Activity", "setting": "[10]", "result": 88, "unit": "%"},
      {"measurement": "Activity", "setting": "[11]", "result": 99, "unit": "%"},
      {"measurement": "Cmax", "setting": "[12]", "result": 0.897, "unit": "µg/mL"},
      {"measurement": "Activity", "setting": "[13]", "result": 100, "unit": "%"},
      {"measurement": "Activity", "setting": "[14]", "result": 89, "unit": "%"},
      {"measurement": "Activity", "setting": "[15]", "result": 100, "unit": "%"},
      {"measurement": "Activity", "setting": "[16]", "result": 96, "unit": "%"},
      {"measurement": "Activity", "setting": "[17]", "result": 96, "unit": "%"},
      {"measurement": "Activity", "setting": "[18]", "result": 100, "unit": "%"},
      {"measurement": "Activity", "setting": "[19]", "result": 81, "unit": "%"},
      {"measurement": "Tmax", "setting": "[20]", "result": 1.02, "unit": "min"},
      {"measurement": "Activity", "setting": "[21]", "result": 100, "unit": "%"},
      {"measurement": "Activity", "setting": "[22]", "result": 97, "unit": "%"},
      {"measurement": "Activity", "setting": "[23]", "result": 86, "unit": "%"},
      {"measurement": "Activity", "setting": "[24]", "result": 94, "unit": "%"},
      {"measurement": "Activity", "setting": "[25]", "result": 100, "unit": "%"},
      {"measurement": "Activity", "setting": "[26]", "result": 98, "unit": "%"}
    ]}
  ]
}
